According to patent publication US4500544A, “Ascochlorin derivatives, and pharmaceutical composition containing the same” (Chugai Seiyaku Kabushiki Kaisha, priority 1981, dated 1985):

What was measured:
Type in all cases: in vivo, ddY male mice
[1] = serum lipid and glucose in normal mice fed the compounds (Example 25); details: for free fatty acid in serum / neutral fat in serum / total cholesterol in serum / serum glucose / lipid level in serum (in words): 0.05% in diet, one week; for free fatty acid in serum / neutral fat in serum / total cholesterol in serum / serum glucose: n=8; for free fatty acid in serum: control 25.3 ± 1.62; for neutral fat in serum: control 134.7 ± 8.6; for total cholesterol in serum: control 135.9 ± 4.8; for serum glucose: control 293.0 ± 13.3; for free fatty acid in serum, change / neutral fat in serum, change / serum glucose, change / total cholesterol in serum, change: vs control
Experimental: Five-week-old ddY male mice were given for one week a diet (CE-2 from Nippon Crea Co., Ltd.) containing 0.05% of the compounds of the present invention indicated in Table 7. On the 7th day, the mice were sacrificed and the levels of lipid and glucose in their serum were measured.

[2] = plasma glucose and cholesterol in normal mice fed the compounds (Example 19); details: 0.1% in diet, one week, n=10; for total cholesterol in plasma: control 135.9 ± 4.8; for plasma glucose: control 271.6 ± 0.4
Experimental: Five-week-old ddY male mice (n=10) were given for one week a diet (CE-2 from Nippon Crea Co., Ltd.) containing 0.1% of the sample compounds of the present invention indicated in Table 1. Blood was then withdrawn from the heart and the glucose and cholesterol levels in plasma were measured.

Ehrlich ascites tumor = test: life span of mice with Ehrlich ascites tumor (Example 22); details: 2 mg i.p. once a day for 7 days; for Days survived: n=8, control 15.5 ± 2.12; for T/0 (%): control 100
Experimental: 10^6 Cells of Ehrlich ascites tumor were transplanted in five-week-old ddY male mice and from the 24th hour onward, they were injected intraperitoneally the compounds indicated in Table 4 of the present invention once a day for 7 consecutive days. Each injection contained 2 mg of the test compounds. The efficacy of the compounds is indicated in Table 4 in terms of their life span.

[3] = system: streptozotocin diabetic ddY mice; test: streptozotocin-diabetic mice, diet with 0.1% compound (Example 21)
Experimental: Five-week-old ddY male mice were injected intraperitoneally with 130 mg/kg of streptozotocin. […] Each group was allowed to take the diet and drink water freely. One week later, the levels of glucose, insulin, free fatty acid in serum and glycogen in liver were measured.

Structure (SMILES)	free fatty acid in serum [1] [mg/dL]	neutral fat in serum [1] [mg/dL]	total cholesterol in serum [1] [mg/dL]	serum glucose [1] [mg/dL]	free fatty acid in serum, change [1]	neutral fat in serum, change [1]	serum glucose, change [1] [%]	total cholesterol in serum, change [1]	total cholesterol in plasma [2] [mg/dL]	plasma glucose [2] [mg/dL]	Days survived (Ehrlich ascites tumor) [days]	T/0 (%) (Ehrlich ascites tumor)	other results
COc1ccc(C(=O)Oc2c(Cl)c(C)c(C=O)c(O)c2C/C=C(C)/C=C/C2(C)C(C)CCC(=O)C2C)cc1 (centres unmarked) [Example 15, 4-O--(p-methoxybenzoyl) ascochlorin]	25.2 ± 1.89	141.4 ± 21.3	137.9 ± 4.1	199.3 ± 8.6	-0.4%	+4.9%	-31.9	+1.4%					
CC(/C=C/C1(C)C(C)CCC(=O)C1C)=C\Cc1c(O)c(C=O)c(C)c(Cl)c1OC(C)C(=O)O (centres unmarked) [Example 9]									106.7 ± 5.5	210.0 ± 10.7	> 28.8 ± 3.54	186	
CCOC(=O)COc1c(Cl)c(C)c(C=O)c(O)c1C/C=C(C)/C=C/C1(C)C(C)CCC(=O)C1C (centres unmarked) [Example 1, 4-O-ethoxycarbonylmethylated ascochlorin]									105.7 ± 3.0	208.3 ± 13.1	19.3 ± 5.77	125	serum immunoreactive insulin ([3]; 0.1% in diet, one week, n=10, control 42.67 ± 4.61): 26.60 ± 2.78 μU/ml; serum free fatty acid ([3]; 0.1% in diet, one week, n=10, control 44.29 ± 2.05): 30.44 ± 1.22 mg/dL; serum glucose ([3]; 0.1% in diet, one week, n=10, control 337.7 ± 23.0): 250.6 ± 26.2 mg/dL; body weight after feeding ([3]; 0.1% in diet, one week, before feeding 25.5 ± 0.4, control after feeding 28.0 ± 0.5, ns): 27.0 ± 0.6 g/mouse; serum free fatty acid, change ([3]; vs control): -31.3%; serum glucose, change ([3]; vs control): -25.8%; serum immunoreactive insulin, change ([3]; vs control): -37.7%
CC(/C=C/C1(C)C(C)CCC(=O)C1C)=C\Cc1c(O)c(C=O)c(C)c(Cl)c1OC(=O)COc1ccc(Cl)cc1 (centres unmarked) [Example 14, 4-O-(p-chlorophenoxy)acetyl ascochlorin]	24.9 ± 0.48	99.4 ± 9.4	115.6 ± 9.8	209 ± 8.9	-1.6%	-26.2%	-28.7	-14.8%					lipid level in serum (in words) [1]: could also reduce the lipid level in serum
CC(/C=C/C1(C)C(C)CCC(=O)C1C)=C\Cc1c(O)c(C=O)c(C)c(Cl)c1OCCCC(=O)O (centres unmarked) [Example 10]									115.7 ± 5.0	220.1 ± 6.8	19.3 ± 10.12	125	
CC(/C=C/C1(C)C(C)CCC(=O)C1C)=C\Cc1c(O)c(C=O)c(C)c(Cl)c1OC(=O)c1ccncc1 (centres unmarked) [Example 17, 4-O-isonicotinoyl ascochlorin]	20.3 ± 0.77	116.1 ± 13.8	113.5 ± 7.8	191.6 ± 13.2	-19.8%		-34.6	-16.5%					lipid level in serum (in words) [1]: could also reduce the lipid level in serum
CCOC(=O)C(C)Oc1c(Cl)c(C)c(C=O)c(O)c1C/C=C(C)/C=C/C1(C)C(C)CCC(=O)C1C (centres unmarked) [Example 5, 4-O-(1-ethoxycarbonylethyl) ester of ascochlorin]									109.7 ± 5.0	205.7 ± 8.2	> 19.1 ± 1.97	123	
CCN(CC)C(=O)Oc1c(Cl)c(C)c(C=O)c(O)c1C/C=C(C)/C=C/C1(C)C(C)CCC(=O)C1C (centres unmarked) [Example 13, 4-O--diethylcarbamoyl ascochlorin]	26.4 ± 0.58	110.2 ± 16.4	121.2 ± 5.0	215.2 ± 5.7	+4.3%	-18.2%	-26.6	-10.8%					
CC(/C=C/C1(C)C(C)CCC(=O)C1C)=C\Cc1c(O)c(C=O)c(C)c(Cl)c1OC(=O)c1ccccn1 (centres unmarked) [Example 18, 4-O--picolinyl ascochlorin]	23.5 ± 3.13	117.6 ± 6.8	138.4 ± 3.1	247.7 ± 9.0	-7.1%	-12.7%	-15.5	+1.8%					
CCOC(=O)CCCOc1c(Cl)c(C)c(C=O)c(O)c1C/C=C(C)/C=C/C1(C)C(C)CCC(=O)C1C (centres unmarked) [Example 8, 4-O-(3-ethoxycarbonyl)propyl ester of ascochlorin]									115.0 ± 6.6	255.5 ± 17.0			
COC(=O)c1ccc(C(=O)Oc2c(Cl)c(C)c(C=O)c(O)c2C/C=C(C)/C=C/C2(C)C(C)CCC(=O)C2C)cc1 (centres unmarked) [Example 16, 4-O--(p-methoxycarbonyl)-benzoyl ascochlorin]	21.8 ± 0.69	136.3 ± 8.1	129.6 ± 3.9	229.9 ± 17.0	-15.9%	+1.2%	-21.5	-4.6%					
